Like-named read-outs stand apart in the source and are kept apart here.
Legend:
human M2 receptor [1] = target: T1, human M2 receptor (Homo sapiens, UniProt P08172); format: cell-based; conditions: α >1 = positive cooperativity
T1 sequence (P08172 1-466): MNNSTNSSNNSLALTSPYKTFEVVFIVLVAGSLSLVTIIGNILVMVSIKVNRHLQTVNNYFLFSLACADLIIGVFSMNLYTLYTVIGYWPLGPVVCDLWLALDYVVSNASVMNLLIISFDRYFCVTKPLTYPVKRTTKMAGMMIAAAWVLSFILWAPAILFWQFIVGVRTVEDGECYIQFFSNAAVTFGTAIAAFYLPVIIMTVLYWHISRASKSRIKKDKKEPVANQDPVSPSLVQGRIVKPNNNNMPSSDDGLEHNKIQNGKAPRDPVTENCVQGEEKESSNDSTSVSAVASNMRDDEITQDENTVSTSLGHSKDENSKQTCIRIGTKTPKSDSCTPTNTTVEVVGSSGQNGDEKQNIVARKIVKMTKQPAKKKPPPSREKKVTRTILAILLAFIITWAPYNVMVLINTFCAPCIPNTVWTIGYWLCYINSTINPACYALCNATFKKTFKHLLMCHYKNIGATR

human M2 receptor [2] = target: T1, human M2 receptor; conditions: for Efficiency: boosting of the acetylcholine effect at EC20 acetylcholine concentration; for Emax: read-out: Efficiency, boosting of the acetylcholine effect at EC20 acetylcholine concentration
[3] = shift of acetylcholine dose-response curve (Allosteric EC50 shift)
[4] = Receptor activity EC50, allosteric potency at EC20 acetylcholine, M2-GIRK1/4 reporter cells, in some cases mean of two or more determinations
[5] = shift in the acetylcholine dose-response curve (Allosteric EC50 shift, GraphPad PRISM)
[6] = Receptor activity EC50, M2-GIRK1/4 activation test, acetylcholine at EC20, allosteric potency, in some cases mean values from two or more determinations

SMILES | Cooperativity (alpha factor) (human M2 receptor [1]; [3]) | EC50 (human M2 receptor [2]; [4]) | Efficiency (human M2 receptor [2]; M2-GIRK1/4 reporter cells) | Cooperativity (alpha factor) (human M2 receptor [1]; [5]) | EC50 (human M2 receptor [2]; [6]) | Emax (human M2 receptor [2]; M2-GIRK1/4 reporter cells)
CC[C@@H](NC(=O)c1cn(-c2ccc(F)cc2F)c2nc(N3CCC(O)(O)C(F)(F)C3)ccc2c1=O)C(F)(F)F [Example 35, 7-(3,3-Difluoro-4,4-dihydroxypiperidin-1-yl)-1-(2,4-difluorophenyl)-4-oxo-N-[(2R)-1,1,1-trifluorobutran-2-yl]-1,4-dihydro-1,8-naphthyridine-3-carboxamide] |  |  |  | 24 | 0.062 µM | 
CCC(NC(=O)c1cn(-c2ccc(F)cc2F)c2nc(N3CCN(C(=O)OC)CC3)ccc2c1=O)C(F)(F)F (single isomer, unassigned; enantiomer a) [Example 24, ent-Methyl 4-{8-(2,4-difluorophenyl)-5-oxo-6-[(1,1,1-trifluorobutan-2-yl)carbamoyl]-5,8-dihydro-1,8-naphthyridin-2-yl}piperazine-1-carboxylate (Enantiomer A)] |  |  |  | 25 | 0.063 µM | 
COC(=O)N1CCN(c2ccc3c(=O)c(C(=O)Nc4c(Cl)cccc4Cl)cn(-c4c(F)cc(F)cc4F)c3n2)CC1 [Example 593, Methyl 4-{6-[(2,6-dichlorophenyl)carbamoyl]-5-oxo-8-(2,4,6-trifluorophenyl)-5,8-dihydro-1,8-naphthyridin-2-yl}piperazine-1-carboxylate] | 29 | 0.017 µM |  |  |  | 89.5%
CCC(NC(=O)c1cn(-c2ccc(F)cc2F)c2nc(N3CCN(C(=O)OC)CC3)ccc2c1=O)C(F)(F)F (single isomer, unassigned; enantiomer b) [Example 25, ent-Methyl 4-{8-(2,4-difluorophenyl)-5-oxo-6-[(1,1,1-trifluorobutan-2-yl)carbamoyl]-5,8-dihydro-1,8-naphthyridin-2-yl}piperazine-1-carboxylate (Enantiomer B)] |  |  |  | 20 | 0.084 µM | 
CC(COC(F)(F)F)NC(=O)c1cn(-c2ccc(F)cc2F)c2nc(N(C)C)ccc2c1=O (racemic) [Example 231, 1-(2,4-Difluorophenyl)-7-(dimethylamino)-4-oxo-N-[1-(trifluoromethoxy)propan-2-yl]-1,4-dihydro-1,8-naphthyridine-3-carboxamide] |  |  |  | 12 | 0.12 µM | 
CC[C@H](NC(=O)c1cn(-c2ccc(F)cc2F)c2nc(N3C[C@H](C(=O)OC)OC3=O)ccc2c1=O)C(F)(F)F [Example 259, Methyl (5R)-3-[8-(2,4-difluorophenyl)-5-oxo-6-{[(2S)-1,1,1-trifluorobutan-2-yl]carbamoyl}-5,8-dihydro-1,8-naphthyridin-2-yl]-2-oxo-1,3-oxazolidine-5-carboxylate] |  |  |  | 14 | 0.56 µM | 
O=C(NC(c1c(F)cccc1F)C(F)(F)F)c1cn(-c2ccc(F)cc2F)c2nc(N3CC[C@H](F)C3)ccc2c1=O (mixture of isomers) [Example 241, 1-(2,4-Difluorophenyl)-N-[1-(2,6-difluorophenyl)-2,2,2-trifluoroethyl]-7-[(3S)-3-fluoropyrrolidin-1-yl]-4-oxo-1,4-dihydro-1,8-naphthyridine-3-carboxamide] |  |  |  | 18 | 0.021 µM | 
CC[C@@H](NC(=O)c1cn(-c2ccc(F)cc2F)c2nc(N3CCC(C)(F)C3)ccc2c1=O)C(F)(F)F (mixture of isomers) [Example 30, 1-(2,4-Difluorophenyl)-7-(3-fluoro-3-methylpyrrolidin-1-yl)-4-oxo-N-[(2R)-1,1,1-trifluorobutan-2-yl]-1,4-dihydro-1,8-naphthyridine-3-carboxamide (diastereomer mixture)] |  |  |  | 11 | 0.095 µM | 
CC[C@H](NC(=O)c1cn(-c2c(F)cc(F)cc2Cl)c2nc(N3CCC(C)(C)C3=O)ccc2c1=O)C(F)(F)F [Example 336, 1-(2-Chloro-4,6-difluorophenyl)-7-(3,3-dimethyl-2-oxopyrrolidin-1-yl)-4-oxo-N-[(2S)-1,1,1-trifluorobutan-2-yl]-1,4-dihydro-1,8-naphthyridine-3-carboxamide] |  |  |  | 13 | 0.012 µM | 
O=C(NC(c1ccccc1Cl)C(F)(F)F)c1cn(-c2ccc(F)cc2F)c2nc(N3CCCC(O)C3=O)ccc2c1=O (racemic) [Example 206, rac-N-[(1R)-(2-Chlorophenyl)-2,2,2-trifluoroethyl]-1-(2,4-difluorophenyl)-7-[3-hydroxy-2-oxopiperidin-1-yl]-4-oxo-1,4-dihydro-1,8-naphthyridine-3-carboxamide] |  |  |  | 14 | 0.107 µM | 
CC[C@@H](NC(=O)c1cn(-c2ccc(F)cc2F)c2nc(N3CC(O)C3)ccc2c1=O)C(F)(F)F [Example 261, 1-(2,4-Difluorophenyl)-7-(3-hydroxyazetidin-1-yl)-4-oxo-N-[(2R)-1,1,1-trifluorobutan-2-yl]-1,4-dihydro-1,8-naphthyridine-3-carboxamide] |  |  |  | 13 | 0.075 µM | 
CC[C@@H](NC(=O)c1cn(-c2c(F)cccc2F)c2nc(N3CCC(C)(O)C3)ccc2c1=O)C(F)(F)F (mixture of isomers) [Example 276, 1-(2,6-Difluorophenyl)-7-[3-hydroxy-3-methylpyrrolidin-1-yl]-4-oxo-N-[(2R)-1,1,1-trifluorobutan-2-yl]-1,4-dihydro-1,8-naphthyridine-3-carboxamide] |  |  |  | 28 | 0.08 µM | 

Next, values leading:

Cooperativity (alpha factor) (human M2 receptor [1]; [3]) | EC50 (human M2 receptor [2]; [4]) | Efficiency (human M2 receptor [2]; M2-GIRK1/4 reporter cells) | Cooperativity (alpha factor) (human M2 receptor [1]; [5]) | EC50 (human M2 receptor [2]; [6]) | Emax (human M2 receptor [2]; M2-GIRK1/4 reporter cells) | SMILES
22 | 0.019 µM | 97.0% |  |  |  | CCC1CCN(c2ccc3c(=O)c(C(=O)N[C@@H](C4CC4)C(F)(F)F)cn(-c4c(F)cc(F)cc4F)c3n2)C(=O)N1 (single isomer, unassigned) [Example 448, N-[(1 S)-1-Cyclopropyl-2,2,2-trifluoroethyl]-7-[4-ethyl-2-oxotetrahydropyrimidin-1(2H)-yl]-4-oxo-1-(2,4,6-trifluorophenyl)-1,4-dihydro-1,8-naphthyridine-3-carboxamide]
 |  |  | 35 | 0.089 µM |  | CC(NC(=O)c1cn(-c2ccc(F)cc2F)c2nc(N3C[C@@H](O)CC3=O)ccc2c1=O)c1c(F)cccc1F (single isomer, unassigned) [Example 216]
23 | 0.027 µM |  |  |  | 100% | O=C(N[C@@H](C1CC1)C(F)(F)F)c1cn(-c2c(F)cc(F)cc2F)c2nc(N3CCC(CO)(CO)CC3)ccc2c1=O [Example 489, 7-[4,4-Bis(hydroxymethyl)piperidin-1-yl]-N-[(1S)-1-cyclopropyl-2,2,2-trifluoroethyl]-4-oxo-1-(2,4,6-trifluorophenyl)-1,4-dihydro-1,8-naphlthyridine-3-carboxamide]
57 | 0.007 µM |  |  |  | 100% | O=C(NC(C1CCC1)C(F)(F)F)c1cn(-c2c(F)cc(F)cc2F)c2nc(N3C[C@@H](O)CC3=O)ccc2c1=O (single isomer, unassigned) [Example 506]
37 | 0.012 µM |  |  |  | 99.3% | O=C(NC1(C(F)(F)F)CCC1)c1cn(-c2c(F)cc(F)cc2F)c2nc(N3C[C@@H](O)CC3=O)ccc2c1=O [Example 515, 7-[(4S)-4-Hydroxy-2-oxopyrrolidin-1-yl]-4-oxo-N-[1-(trifluoromethyl)cyclobutyl]-1-(2,4,6-trifluorophenyl)-1,4-dihydro-1,8-naphthyridine-3-carboxamide]
28 | 0.007 µM |  |  |  | 100% | CC[C@@H](COC(F)(F)F)NC(=O)c1cn(-c2c(F)cc(F)cc2F)c2nc(N3C[C@@H](C)NC3=O)ccc2c1=O (single isomer, unassigned) [Example 454]
37 | 0.009 µM | 100.0% |  |  |  | O=C(N[C@@H](C1CC1)C(F)(F)F)c1cn(-c2c(F)cc(F)cc2Cl)c2nc(N3C[C@@H](O)[C@H](O)C3)ccc2c1=O (single isomer, unassigned) [Example 548]
 |  |  | 34 | 0.02 µM |  | O=C(NC12CC(C(F)(F)F)(C1)C2)c1cn(-c2c(F)cc(F)cc2F)c2nc(N3C[C@@H](O)CC3=O)ccc2c1=O [Example 372, 7-[(4S)-4-Hydroxy-2-oxopyrrolidin-1-yl]-4-oxo-N-[3-(trifluoromethyl)bicyclo[1.1.1]pent-1-yl]-1-(2,4,6-trifluorophenyl)-1,4-dihydro-1,8-naphthyridine-3-carboxamide]
 |  |  | 44 | 0.034 µM |  | CC[C@@H](NC(=O)c1cn(-c2c(F)cc(F)cc2F)c2nc(N3CCC(O)C3=O)ccc2c1=O)C(F)(F)F (single isomer, unassigned) [Example 281]
35 | 0.02 µM |  |  |  | 100% | CC(C)(NC(=O)c1cn(-c2c(F)cc(F)cc2F)c2nc(N3C[C@@H](O)CC3=O)ccc2c1=O)C(F)F [Example 516, N-(1,1-Difluoro-2-methylpropan-2-yl)-7-[(4S)-4-hydroxy-2-oxopyrrolidin-1-yl]-4-oxo-1-(2,4,6-trifluorophenyl)-1,4-dihydro-1,8-naphthyridine-3-carboxamide]

— patent publication US20190367516A1 (Bayer Pharma Aktiengesellschaft, priority 2015, published 2019)
